“Also recorded” adds a separate entry of the source.
Experiments:
[1] = target: T1, 11β-HSD1 (Rattus norvegicus, UniProt P16232); test: 11β-HSD1 oxidase assay in ALC microsomes; assay type: biochemical
T1 construct: endogenous in cells; host or cells: primary rat adult Leydig cells (ALCs) from 90-day-old rat testes
Experimental: (§1) The microsomes from ALCs were prepared as described previously ([6]). In brief, ALCs were homogenized in cold 0.01M PBS, pH 7.2, containing 0.25 M sucrose. Subsequently, the homogenates were centrifuged at 700 × g for 30 min and the supernatants were transferred to other tubes followed by centrifugation at 10,000 × g for 30 min. The resultant supernatants were centrifuged twice at 105,000 × g for 1 h. The pellets were resuspended and the protein contents were determined by Bio-Rad Protein Assay Kit (cat# 500–0006, Bio-Rad, Hercules, CA). Microsomes were used to assay 11β-HSD1 oxidoreductase activities.
(§2) 11β-HSD1 oxidase and reductase in microsomes were performed as previously described ([15]). For measurements in microsomal preparations, microsomes were incubated with 25 nM [^3H]-CORT and 0.2 mM NADP^+ for oxidase or 25 nM [^3H]-DHC and 0.2 mM NADPH for reductase activity in presence of different concentrations of DHEA or 7αOHD. For testing mode of action, microsomes were incubated with 2 nM to 10 μM [^3H]-CORT and 0.2 mM NADP^+ for oxidase or 2 nM to 10 μM [^3H]-DHC and 0.2 mM NADPH for reductase activity. 1.5 μg of ALC microsomes were added to initiate the reaction. The reactions were stopped by adding 2 ml ice-cold ether. The steroids were extracted, and the organic layer was dried under nitrogen. The steroids were separated chromatographically on thin layer plates in chloroform and methanol (90:10, v/v), and the radioactivity was measured using a scanning radiometer (System AR2000, Bioscan Inc., Washington, DC). The percentage conversion of CORT to DHC and DHC to CORT was calculated by dividing the radioactive counts identified as DHC (or CORT, respectively) by the total counts associated with CORT plus DHC.

[2] = target: T1, 11β-HSD1; test: 11β-HSD1 reductase assay in ALC microsomes; assay type: biochemical; conditions: for LOEL on 11β-HSD1 reductase activity in ALC microsomes: 10 nM-10 μM tested
Experimental: as §1, §2

[3] = target: T1, 11β-HSD1; test: 11β-HSD1 reductase assay in intact ALCs (DHC to CORT); assay type: cell-based; conditions: for lowest observable effective level (LOEL) on 11β-HSD1 reductase activity: 10 nM-10 μM tested
Source text: (§3) Testes were processed for purification of Leydig cells. The progenitor (PLC), immature (ILC), and adult Leydig cells (ALC) were purified from rat testes at 21, 35, and 90 days postpartum, as described previously ([25], [26]). In brief, forty 21-day-old (for PLCs), eighteen 35-day-old (for ILCs), and six 90-day-old (for ALCs) rats were sacrificed, followed by removal and decapsulation of testes. Then, the testes were digested with collagenase and cells were separated by Percoll density gradient centrifugation. Purities of Leydig cell fractions were evaluated by histochemical staining of 3β-hydroxysteroid dehydrogenase (3β-HSD), with 0.4 mM etiocholanolone as an enzyme substrate ([27]). At least six isolations per cell types were performed.
(§4) 11β-HSD1 oxidase and reductase in intact ALCs were performed as previously described ([15]).11β-HSD1 oxidase activity assay tubes contained 25 nM CORT spiked with 60,000 dpm [^3H]-CORT (a concentration within the range of physiological levels of CORT). 11β-HSD1 reductase activity assay tubes contained 25 nM DHC spiked with 60,000 dpm [^3H]-DHC. 2.5 × 10^4 intact ALCs were added to start the reaction and the reaction was maintained in 34°C and 75 rpm shaking water bath for 30 min. The reactions were stopped by adding 2 ml ice-cold ether. The steroids were extracted, and the organic layer was dried under nitrogen. The steroids were separated chromatographically on thin layer plates in chloroform and methanol (90:10, v/v), and the radioactivity was measured using a scanning radiometer (System AR2000, Bioscan Inc., Washington, DC). The percentage conversion of CORT to DHC and DHC to CORT was calculated by dividing the radioactive counts identified as DHC (or CORT, respectively) by the total counts associated with CORT plus DHC.

[4] = target: T1, 11β-HSD1; test: 11β-HSD1 oxidase assay in intact ALCs (CORT to DHC); assay type: cell-based; conditions: for lowest observable effective level (LOEL) on 11β-HSD1 oxidase activity: 10 nM-10 μM tested
Source text: as §3, §4

[5] = ALC microsomes, 0, 1 and 10 μM, Lineweaver-Burk plot

T1 sequence (P16232 whole entry): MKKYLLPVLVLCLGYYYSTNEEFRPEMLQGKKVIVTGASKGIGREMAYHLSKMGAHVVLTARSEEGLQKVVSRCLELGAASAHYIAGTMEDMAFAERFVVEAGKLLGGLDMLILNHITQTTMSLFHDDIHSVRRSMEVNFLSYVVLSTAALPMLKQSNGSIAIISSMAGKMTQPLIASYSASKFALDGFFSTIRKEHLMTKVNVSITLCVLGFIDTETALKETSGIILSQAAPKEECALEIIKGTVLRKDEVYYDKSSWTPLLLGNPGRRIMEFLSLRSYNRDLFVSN

C[C@]12CC[C@H](O)CC1=C[C@@H](O)[C@@H]1[C@@H]2CC[C@]2(C)C(=O)CC[C@@H]12 [7αOHD, 7α-hydroxydehydroepiandrosterone]
mode of action on 11β-HSD1 oxidase [1, 5]: competitive inhibitor | LOEL on 11β-HSD1 oxidase activity in ALC microsomes ([1]; ALC microsomes, 10 nM-10 μM tested): 100 nM | EC50/IC50 for 11β-HSD1 oxidase, microsome ([1]; ALC microsomes, 25 nM CORT plus 0.2 mM NADP+, ND, not detected, Mean ± SEM (n = 4)): 0.93 ±0.14 ×10^−6 M | IC50 ([1]; ALC microsomes, 25 nM CORT plus 0.2 mM NADP+, read-out: IC50 for inhibiting 11β-HSD1 oxidase activity in ALC microsomes): 930 nM | 11β-HSD1 oxidase activity in ALC microsomes ([1]; at 1 μM): 60 % of control | 11β-HSD1 oxidase activity in ALC microsomes ([1]; at 10 μM): 25 % of control | 11β-HSD1 oxidase/reductase ratio in ALC microsomes ([1]; at 0.1–10 μM): significantly decreased | LOEL on 11β-HSD1 reductase activity in ALC microsomes ([2]; ALC microsomes): 100 nM | EC50 ([2]; ALC microsomes, 25 nM DHC plus 0.2 mM NADPH, Mean ± SEM (n = 4), read-out: EC50 for stimulation of 11β-HSD1 reductase, microsome): 200 ± 10 nM | effect on 11β-HSD1 reductase activity in ALC microsomes at the highest concentration ([2]; at the highest concentration (100 nM)): did not affect | lowest observable effective level (LOEL) on 11β-HSD1 reductase activity ([3]; intact ALCs): 100 nM | EC50 ([3]; intact ALCs, 25 nM DHC, 0.5 h, Mean ± SEM (n = 4), read-out: EC50 for stimulation of 11β-HSD1 reductase, intact Leydig cells): 700 ± 40 nM | 11β-HSD1 reductase activity ([3]; intact ALCs, at 1 μM): 200 % of control | 11β-HSD1 reductase activity ([3]; intact ALCs, at 10 μM): 200 % of control | lowest observable effective level (LOEL) on 11β-HSD1 oxidase activity ([4]; intact ALCs): 100 nM | IC50 ([4]; intact ALCs, 25 nM CORT, 0.5 h, Mean ± SEM (n = 4), read-out: IC50 for inhibition of 11β-HSD1 oxidase, intact Leydig cells): 1180 ± 120 nM | 11β-HSD1 oxidase activity ([4]; intact ALCs, at 1 μM): 60 % of control | 11β-HSD1 oxidase/reductase ratio ([4]; intact ALCs, at 1 μM): 50 % of control | 11β-HSD1 oxidase activity ([4]; intact ALCs, at 10 μM): 25 % of control | 11β-HSD1 oxidase/reductase ratio ([4]; intact ALCs, at 10 μM): 20 % of control

C[C@]12CC[C@H](O)CC1=CC[C@@H]1[C@@H]2CC[C@]2(C)C(=O)CC[C@@H]12 [DHEA, dehydroepiandrosterone]
effect on microsomal 11β-HSD1 oxidase activity ([1]; ALC microsomes, 10 nM-10 μM): did not affect; also recorded: nearly unchanged | effect on microsomal 11β-HSD1 oxidase activity at 10 μM ([1]; ALC microsomes, at 10 μM): inhibited | 11β-HSD1 oxidase/reductase ratio in ALC microsomes ([1]; at 1 and 10 μM): significantly higher than control | mode of action on 11β-HSD1 reductase [2, 5]: potent competitive inhibitor | LOEL on 11β-HSD1 reductase activity in ALC microsomes ([2]; ALC microsomes): 100 nM | 11β-HSD1 reductase activity in ALC microsomes ([2]; at 10 μM): 25 % of control | IC50 [3]: 1040 ± 60 nM | lowest observable effective level (LOEL) on 11β-HSD1 reductase activity ([3]; intact ALCs): 100 nM | 11β-HSD1 reductase activity ([3]; intact ALCs, at 10 μM): 12 % of control | EC50 [4]: 970 ± 100 nM | lowest observable effective level (LOEL) on 11β-HSD1 oxidase activity ([4]; intact ALCs): 100 nM | 11β-HSD1 oxidase activity ([4]; intact ALCs, at 10 μM): 300 % of control | increase of 11β-HSD1 oxidase/reductase ratio ([4]; intact ALCs, at 10 μM): 26 folds

Source: publication PMC6993528, “Dehydroepiandrosterone and Its CYP7B1 Metabolite 7α-Hydroxydehydroepiandrosterone Regulates 11β-Hydroxysteroid Dehydrogenase 1 Directions in Rat Leydig Cells” (Frontiers in Endocrinology, 2020)
